Source: ChEMBL document CHEMBL1201862, “PubChem BioAssay data set” (2004)
Activity calls are given as the source filed them.

Tests used:
[1] = target: T1, Protein RecA (Mycobacterium tuberculosis, UniProt P9WHJ3); assay: Fluorescence Cell-Free Homogeneous Dose Retest to Identify Inhibitors of RecA-Intein Splicing Activity. [Related pubchem assays (depositor defined):AID2097, AID2223, AID489010, AID492950]; assay type: functional
T1 sequence (P9WHJ3 whole entry): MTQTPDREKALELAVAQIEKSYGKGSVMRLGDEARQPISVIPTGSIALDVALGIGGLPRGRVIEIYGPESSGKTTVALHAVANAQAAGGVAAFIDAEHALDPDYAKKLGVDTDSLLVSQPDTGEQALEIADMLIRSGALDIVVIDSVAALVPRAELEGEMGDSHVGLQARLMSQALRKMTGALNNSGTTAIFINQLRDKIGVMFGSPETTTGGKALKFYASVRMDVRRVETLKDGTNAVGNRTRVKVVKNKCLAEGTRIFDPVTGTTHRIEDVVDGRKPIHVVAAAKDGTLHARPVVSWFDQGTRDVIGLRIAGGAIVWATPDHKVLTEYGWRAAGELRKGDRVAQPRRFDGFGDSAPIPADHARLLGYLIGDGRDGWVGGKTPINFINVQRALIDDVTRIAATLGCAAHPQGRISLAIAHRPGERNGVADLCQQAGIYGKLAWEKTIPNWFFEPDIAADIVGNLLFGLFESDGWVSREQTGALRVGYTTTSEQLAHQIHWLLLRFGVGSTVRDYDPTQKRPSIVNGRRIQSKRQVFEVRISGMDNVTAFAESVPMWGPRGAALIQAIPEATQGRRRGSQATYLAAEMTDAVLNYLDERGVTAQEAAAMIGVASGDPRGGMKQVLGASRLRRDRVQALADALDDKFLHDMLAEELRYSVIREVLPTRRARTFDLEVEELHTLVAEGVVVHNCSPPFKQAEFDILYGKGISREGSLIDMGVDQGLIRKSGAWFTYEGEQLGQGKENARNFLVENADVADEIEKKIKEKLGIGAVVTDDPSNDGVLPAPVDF

[2] = system: Vero; assay: Vero cell cytotoxicity, cytotoxicity control for flavivirus capping enzyme inhibitors (AID 588742); assay type: functional; details: Chlorocebus sabaeus
[3] = microbe, parasite or virus in culture; assay type: functional; details: Mycobacterium tuberculosis
[4] = system: Vero; assay: cells; assay type: functional, cell-based; details: Chlorocebus sabaeus
[5] = system: Vero; assay: cells; assay type: functional; details: Chlorocebus sabaeus
[6] = target: T2, Replicative DNA helicase DnaB (Mycobacterium tuberculosis, UniProt P9WMR3); assay: DnaB intein splicing inhibitors, dose response, biochemical, cell-free fluorescence (AID 449749); assay type: functional
T2 sequence (P9WMR3 whole entry): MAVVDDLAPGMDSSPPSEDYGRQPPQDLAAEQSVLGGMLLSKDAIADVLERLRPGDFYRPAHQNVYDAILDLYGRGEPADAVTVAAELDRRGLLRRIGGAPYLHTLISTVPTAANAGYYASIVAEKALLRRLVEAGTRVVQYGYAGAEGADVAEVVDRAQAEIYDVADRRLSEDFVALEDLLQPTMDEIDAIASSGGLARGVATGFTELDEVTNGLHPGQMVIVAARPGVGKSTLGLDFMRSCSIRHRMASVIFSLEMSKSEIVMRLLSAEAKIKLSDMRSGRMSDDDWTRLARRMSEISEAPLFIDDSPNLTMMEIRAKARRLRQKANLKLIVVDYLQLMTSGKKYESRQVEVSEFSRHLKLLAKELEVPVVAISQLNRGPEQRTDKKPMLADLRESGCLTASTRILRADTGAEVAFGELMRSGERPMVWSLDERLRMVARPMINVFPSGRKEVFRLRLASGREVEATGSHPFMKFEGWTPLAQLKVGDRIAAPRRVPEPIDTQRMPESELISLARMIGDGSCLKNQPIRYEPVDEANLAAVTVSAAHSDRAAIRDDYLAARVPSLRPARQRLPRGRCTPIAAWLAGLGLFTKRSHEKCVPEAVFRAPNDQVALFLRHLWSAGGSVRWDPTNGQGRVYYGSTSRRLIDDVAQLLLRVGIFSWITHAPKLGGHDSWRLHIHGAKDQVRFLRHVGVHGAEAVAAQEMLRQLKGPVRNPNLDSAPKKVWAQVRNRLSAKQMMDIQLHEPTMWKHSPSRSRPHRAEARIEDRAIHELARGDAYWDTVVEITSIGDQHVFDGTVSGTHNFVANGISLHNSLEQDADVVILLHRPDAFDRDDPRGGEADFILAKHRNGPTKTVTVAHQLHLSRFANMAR

[7] = cytotoxicity in MIN6 insulinoma cells, dose response, cytotoxicity control, cell-based, mouse insulinoma (AID 2122); assay type: functional;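 note: confirmatory high-throughput counterscreen run to flag cytotoxic compounds; mouse MIN-6 beta cells carrying an insulin promoter eGFP reporter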
[8] = inhibitors of intracellular T. cruzi replication, confirmation, NIH3T3 host cells, beta-gal luminescence (AID 2044); assay type: functional, cell-based;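 note: intracellular parasites grown in NIH/3T3 mouse fibroblasts as host cells; luminescent beta-galactosidase reporter signal from transgenic T. cruzi replicating inside host cells; inhibitors lower the luminescence signal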
[9] = insulin promoter down-regulators in MIN6 cells, imaging, high-content screening, mouse beta cells (AID 1628); assay type: functional
[10] = cytotoxicity toward NIH3T3 fibroblasts, dose response, counter-screen, cell-based, ATP luminescence, mouse fibroblasts (AID 2010); assay type: functional;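 note: cells exposed to compound for about 90 hours before reading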
[11] = target: Delta-type opioid receptor (Homo sapiens, UniProt P41143); assay: Counterscreen for agonists of heterodimerization of the mu 1 (OPRM1) and delta 1 (OPRD1) opioid receptors: Luminescence-based cell-based high throughput dose response assay to identify agonists of OPRD1 homodimerization. [Related pubchem assays (depositor defined):AID504326, AID504355, AID504692, AID504904, AID504905]; assay type: functional
Delta-type opioid receptor, sequence (P41143 whole entry): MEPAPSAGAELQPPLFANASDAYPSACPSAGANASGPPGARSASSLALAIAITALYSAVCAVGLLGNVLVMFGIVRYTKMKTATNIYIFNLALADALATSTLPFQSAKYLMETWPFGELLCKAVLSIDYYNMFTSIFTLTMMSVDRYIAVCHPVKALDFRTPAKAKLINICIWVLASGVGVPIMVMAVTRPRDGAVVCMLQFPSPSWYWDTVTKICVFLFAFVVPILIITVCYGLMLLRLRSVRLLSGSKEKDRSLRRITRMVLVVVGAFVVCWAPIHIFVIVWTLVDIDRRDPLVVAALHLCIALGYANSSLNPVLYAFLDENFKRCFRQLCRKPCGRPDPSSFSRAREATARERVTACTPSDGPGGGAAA

[12] = target: Mu-type opioid receptor (Homo sapiens, UniProt P35372); assay: Counterscreen for agonists of heterodimerization of the mu 1 (OPRM1) and delta 1 (OPRD1) opioid receptors: Luminescence-based cell-based high throughput dose response assay to identify agonists of OPRM1 homodimerization.; assay type: functional;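 note: U2OS cells expressing OPRM1 and beta-arrestin as split beta-galactosidase partners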
Mu-type opioid receptor, sequence (P35372 whole entry): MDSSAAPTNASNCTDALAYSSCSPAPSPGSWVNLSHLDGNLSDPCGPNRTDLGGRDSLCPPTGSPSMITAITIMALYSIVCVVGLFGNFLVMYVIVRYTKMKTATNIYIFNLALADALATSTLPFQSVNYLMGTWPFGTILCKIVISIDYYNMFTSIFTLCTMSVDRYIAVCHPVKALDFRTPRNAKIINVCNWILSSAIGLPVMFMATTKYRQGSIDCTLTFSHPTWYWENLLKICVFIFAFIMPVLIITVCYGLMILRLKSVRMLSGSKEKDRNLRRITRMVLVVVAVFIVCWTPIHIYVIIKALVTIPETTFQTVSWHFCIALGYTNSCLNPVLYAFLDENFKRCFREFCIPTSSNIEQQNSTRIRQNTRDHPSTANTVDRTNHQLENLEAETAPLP

[13] = target: 5-hydroxytryptamine receptor 5A (Homo sapiens, UniProt P47898); assay: Counterscreen for agonists of OPRM1-OPRD1 heterodimerization: luminescence-based cell-based high throughput dose response assay to identify agonists of 5-hydroxytryptamine (serotonin) 5A receptor (HTR5A). [Related pubchem assays (depositor defined):AID504326, AID504355, AID504692, AID504904, AID504905]; assay type: functional
5-hydroxytryptamine receptor 5A, sequence (P47898 whole entry): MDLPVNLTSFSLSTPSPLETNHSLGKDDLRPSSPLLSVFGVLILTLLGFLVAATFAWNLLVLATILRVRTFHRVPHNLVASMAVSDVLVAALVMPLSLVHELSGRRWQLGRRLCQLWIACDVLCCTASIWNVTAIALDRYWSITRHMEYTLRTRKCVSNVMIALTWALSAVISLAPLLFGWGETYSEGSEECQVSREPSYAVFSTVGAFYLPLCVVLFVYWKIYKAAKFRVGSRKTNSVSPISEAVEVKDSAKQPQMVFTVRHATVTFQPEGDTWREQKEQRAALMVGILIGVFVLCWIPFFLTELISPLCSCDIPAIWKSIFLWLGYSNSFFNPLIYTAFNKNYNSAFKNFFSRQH

[14] = target: T3, Short transient receptor potential channel 4 (Mus musculus, UniProt Q9QUQ5); assay: mouse TRPC4 channel activators, dose response, cell-based, HEK293 TRPC4/mu-opioid, Fluo-4 calcium (AID 434937); assay type: functional
T3 sequence (Q9QUQ5 whole entry): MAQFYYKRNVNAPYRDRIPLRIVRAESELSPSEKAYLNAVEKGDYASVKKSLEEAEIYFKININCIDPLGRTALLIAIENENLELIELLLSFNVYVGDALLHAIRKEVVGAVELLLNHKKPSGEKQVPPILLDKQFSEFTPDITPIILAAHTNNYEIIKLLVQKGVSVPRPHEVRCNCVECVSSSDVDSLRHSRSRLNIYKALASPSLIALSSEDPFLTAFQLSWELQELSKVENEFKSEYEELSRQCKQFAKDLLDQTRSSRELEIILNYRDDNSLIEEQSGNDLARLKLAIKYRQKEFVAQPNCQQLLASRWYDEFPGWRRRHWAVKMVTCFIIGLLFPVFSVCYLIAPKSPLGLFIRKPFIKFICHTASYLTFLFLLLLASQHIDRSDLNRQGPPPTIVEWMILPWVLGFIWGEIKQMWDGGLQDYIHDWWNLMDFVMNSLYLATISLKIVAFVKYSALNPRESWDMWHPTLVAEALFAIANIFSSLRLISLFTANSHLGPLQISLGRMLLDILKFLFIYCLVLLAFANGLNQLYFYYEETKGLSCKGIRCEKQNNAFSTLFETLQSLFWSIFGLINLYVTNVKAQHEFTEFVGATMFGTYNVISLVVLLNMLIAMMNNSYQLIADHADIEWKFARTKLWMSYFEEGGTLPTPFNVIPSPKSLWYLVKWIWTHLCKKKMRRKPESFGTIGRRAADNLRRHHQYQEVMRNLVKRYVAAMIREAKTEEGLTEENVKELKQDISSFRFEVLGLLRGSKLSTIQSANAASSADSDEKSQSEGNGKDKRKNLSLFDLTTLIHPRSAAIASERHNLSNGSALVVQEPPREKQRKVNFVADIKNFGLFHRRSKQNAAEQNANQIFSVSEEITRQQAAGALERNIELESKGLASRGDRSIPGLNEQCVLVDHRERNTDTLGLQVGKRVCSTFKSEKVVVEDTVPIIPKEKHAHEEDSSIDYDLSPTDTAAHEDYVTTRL

[15] = cells; assay type: functional
[16] = Luminescent dose response cell-based high throughput screening assay for inhibitors of the Janus kinase 2 mutant JAK2V617F. [Related pubchem assays: 1446 (Primary screen.), 1521 (Confirmation assay.), 1486 (Counter screen.)]; assay type: functional
[17] = control 3'UTR Renilla luciferase suppression, dose response, counter-screen for Shn3 inhibitor project, cell-based, Clone20-Shn3RL, cherry-picked (AID 624133); assay type: functional
[18] = Shn3 3'UTR reporter inhibitors, dose response, cell-based, Clone20 osteoblasts, firefly luciferase, cherry-picked (AID 624132); assay type: functional;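 note: firefly luciferase luminescence from reporter carrying the Shn3 3'UTR in osteoblasts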
[19] = system: HEK293; assay: NOD2 signaling inhibitors in MDP-stimulated cells, cell-based, uHTS, luminescence (AID 2001); assay type: functional; details: Homo sapiens
[20] = HepG2 cell cytotoxicity, dose response, cytotoxicity control for Shn3 inhibitor project, CellTiter-Glo, cherry-picked (AID 624134); assay type: functional, cell-based
[21] = Luminescence Cell-Based Dose Retest to Confirm Inhibitors of Cancer Stem Cells. [Related pubchem assays (depositor defined):AID2717, AID2721]; assay type: functional; details: Homo sapiens
[22] = system: HEK293; assay: NOD1 signaling inhibitors, primary screen, cell-based, luminescence, uHTS (AID 1578); assay type: functional; details: Homo sapiens
[23] = target: T4, Hexokinase HKDC1 (Homo sapiens, UniProt Q2TB90); assay: HKDC1 hexokinase inhibitors, dose response, biochemical, W721R variant (AID 504729); assay type: functional
T4 sequence (Q2TB90 whole entry): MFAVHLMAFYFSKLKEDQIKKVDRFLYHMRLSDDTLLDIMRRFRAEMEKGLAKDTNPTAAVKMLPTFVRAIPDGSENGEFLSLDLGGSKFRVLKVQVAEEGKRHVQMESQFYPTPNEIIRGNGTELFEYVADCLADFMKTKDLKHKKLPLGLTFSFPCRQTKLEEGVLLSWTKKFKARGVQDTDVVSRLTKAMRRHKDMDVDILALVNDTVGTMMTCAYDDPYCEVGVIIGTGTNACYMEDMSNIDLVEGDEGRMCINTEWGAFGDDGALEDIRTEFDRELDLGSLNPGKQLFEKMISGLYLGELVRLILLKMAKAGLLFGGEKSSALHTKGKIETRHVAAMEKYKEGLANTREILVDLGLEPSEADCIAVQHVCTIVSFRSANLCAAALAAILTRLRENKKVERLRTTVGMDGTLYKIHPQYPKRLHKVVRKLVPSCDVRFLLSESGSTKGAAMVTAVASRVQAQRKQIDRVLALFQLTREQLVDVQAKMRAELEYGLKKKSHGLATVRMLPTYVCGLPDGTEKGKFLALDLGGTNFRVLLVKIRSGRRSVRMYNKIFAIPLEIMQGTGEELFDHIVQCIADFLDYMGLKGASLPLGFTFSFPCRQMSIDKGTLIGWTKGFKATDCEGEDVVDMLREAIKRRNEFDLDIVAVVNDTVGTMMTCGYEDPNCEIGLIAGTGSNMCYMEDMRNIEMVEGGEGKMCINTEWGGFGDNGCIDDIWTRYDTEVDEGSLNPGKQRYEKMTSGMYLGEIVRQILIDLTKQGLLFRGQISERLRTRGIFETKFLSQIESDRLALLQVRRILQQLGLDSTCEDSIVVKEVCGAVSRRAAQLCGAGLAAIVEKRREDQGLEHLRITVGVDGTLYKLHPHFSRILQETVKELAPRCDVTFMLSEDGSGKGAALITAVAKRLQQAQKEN

[24] = system: HEK293; assay: cells; assay type: functional, cell-based; details: Homo sapiens
[25] = Vero E6 cell cytotoxicity, dose response, cytotoxicity control for non-replicating M. tuberculosis project, secondary assay (AID 492998); assay type: functional, VeroE6; details: Vero C1008
[26] = THP-1 cell cytotoxicity, dose response, cytotoxicity control for non-replicating M. tuberculosis project (AID 489025); assay type: functional
[27] = system: HEK293; assay: cells; assay type: functional, cell-based; details: Homo sapiens; remark: listed apart in the source
[28] = HEp-2 cell cytotoxicity, dose response, cytotoxicity control for RSV inhibitor project, HTS (AID 2410); assay type: functional; details: human respiratory syncytial virus
[29] = cells

Oc1cc(N=Nc2ccc(Cl)cc2)nc(O)n1
EC50 [1]: 1.2 µM (active)
CC50 [2]: 14.8 µM (active)
CC50 [3]: 8.44 µM (active)
IC50 [4]: 21.9 µM (active)
CC50 [5]: > 25 µM (active)
AC50 [6]: 2.37 µM (active)

Cc1ccc(OCC(O)Cn2c(=N)n(CCN3CCCCC3)c3ccccc32)cc1 (configuration not stated)
IC50 [7]: 3.24 µM (active)
EC50 [8]: 3.83 µM (active)
IC50 [9]: 1.28 µM (active)
CC50 [5]: 13.8 µM (active)
EC50 [10]: > 60 µM (not active)

Cc1cc(C)cc(C(=O)N(CCc2ccccc2)C2=CC3CCC(C2)N3C)c1 (configuration not stated)
EC50 [11]: > 92.5 µM (inactive)
EC50 [12]: 43.9 µM (inactive)
EC50 [13]: > 92.5 µM (inactive)
EC50 [14]: 0.267 µM (active)

Cc1nc([N+](=O)[O-])c(Br)n1CC(=O)c1ccc2ccccc2c1
IC50 [15]: 10.1 µM (active)
IC50 [16]: 1.88 µM (active)
AC50 [17]: 3.22 µM (active)
CC50 [3]: 16 µM (active)
AC50 [18]: 10.7 µM (active)
IC50 [19]: 3.77 µM (active)
AC50 [20]: 63.7 µM (active)
AC50 [21]: 4.44 µM (active)
EC50 [22]: 17.6 µM (active)
IC50 [23]: 20.6 µM (inactive)
IC50 [24]: > 20 µM (inactive)
CC50 [25]: 16.3 µM (active)
CC50 [26]: 17.4 µM (active)
IC50 [27]: 3.46 µM (active)

Cc1cc(C(C)(C)C)cc(C)c1CCNC(=O)c1ccc[n+]([O-])c1
IC50 [4]: > 25 µM (active)
CC50 [28]: 38.3 µM (active)
IC50 [29]: 38 µM (active)
